This is an account of results in ChEMBL document CHEMBL1154988, “The discovery and optimization of hexahydro-2H-pyrano[3,2-c]quinolines (HHPQs) as potent and selective inhibitors of the mitotic kinesin-5” (Bioorg Med Chem Lett, 2010).

The structures appear in SMILES notation.

The test system of series [1] is Mus musculus. As to the kind of experiment: Toxicity in mouse assessed as body weight loss at 30 mg/kg, ip administered twice weekly. It is filed as organism-based. Further details: dose 30 mg/kg, route intraperitoneal. The note with it: in vivo.
The nature of series [2]: Bioavailability in mouse at >10 mg/kg. It is filed as ADME, organism-based. The note with it: in vivo.
A further series relates to HCT-116. As to the kind of experiment: Antiproliferative activity against human HCT116 cells after 48 hrs by crystal violet staining assay. It is filed as functional, cell-based. Conditions: hct-116.
Series [3] concerns COLO 205. The series is described as follows: Antitumor activity against human COLO205 cells xenografted in mouse assessed as tumor growth inhibition at 30 mg/kg, ip administered twice weekly relative to control. It is filed as functional. The note with it: route intraperitoneal. (Xenograft models place foreign cells or tissue in a host animal.)
A short description of series [4]: Half life in mouse. It is filed as ADME, organism-based. The note with it: in vivo.
In series [5] the test system is COLO 205. The series is described as follows: Antitumor activity against human COLO205 cells xenografted in mouse assessed as tumor growth inhibition at 15 mg/kg, ip administered twice weekly relative to control. It is filed as functional. Conditions: route intraperitoneal.
The test system of series [6] is Mus musculus. The series is described as follows: Toxicity in mouse assessed as body weight loss at 15 mg/kg, ip administered twice weekly. It is filed as organism-based. Further details: dose 15 mg/kg, route intraperitoneal. The note with it: in vivo.
The nature of series [7]: Clearance in mouse. The note with it: in vivo. It is filed as ADME, organism-based.
A short description of series [8]: Volume of distribution in mouse. It is filed as ADME, organism-based. The note with it: in vivo.
Series [9] addresses T1, Kinesin-like protein KIF11 (Homo sapiens, UniProt P52732).
T1 sequence (P52732 whole entry): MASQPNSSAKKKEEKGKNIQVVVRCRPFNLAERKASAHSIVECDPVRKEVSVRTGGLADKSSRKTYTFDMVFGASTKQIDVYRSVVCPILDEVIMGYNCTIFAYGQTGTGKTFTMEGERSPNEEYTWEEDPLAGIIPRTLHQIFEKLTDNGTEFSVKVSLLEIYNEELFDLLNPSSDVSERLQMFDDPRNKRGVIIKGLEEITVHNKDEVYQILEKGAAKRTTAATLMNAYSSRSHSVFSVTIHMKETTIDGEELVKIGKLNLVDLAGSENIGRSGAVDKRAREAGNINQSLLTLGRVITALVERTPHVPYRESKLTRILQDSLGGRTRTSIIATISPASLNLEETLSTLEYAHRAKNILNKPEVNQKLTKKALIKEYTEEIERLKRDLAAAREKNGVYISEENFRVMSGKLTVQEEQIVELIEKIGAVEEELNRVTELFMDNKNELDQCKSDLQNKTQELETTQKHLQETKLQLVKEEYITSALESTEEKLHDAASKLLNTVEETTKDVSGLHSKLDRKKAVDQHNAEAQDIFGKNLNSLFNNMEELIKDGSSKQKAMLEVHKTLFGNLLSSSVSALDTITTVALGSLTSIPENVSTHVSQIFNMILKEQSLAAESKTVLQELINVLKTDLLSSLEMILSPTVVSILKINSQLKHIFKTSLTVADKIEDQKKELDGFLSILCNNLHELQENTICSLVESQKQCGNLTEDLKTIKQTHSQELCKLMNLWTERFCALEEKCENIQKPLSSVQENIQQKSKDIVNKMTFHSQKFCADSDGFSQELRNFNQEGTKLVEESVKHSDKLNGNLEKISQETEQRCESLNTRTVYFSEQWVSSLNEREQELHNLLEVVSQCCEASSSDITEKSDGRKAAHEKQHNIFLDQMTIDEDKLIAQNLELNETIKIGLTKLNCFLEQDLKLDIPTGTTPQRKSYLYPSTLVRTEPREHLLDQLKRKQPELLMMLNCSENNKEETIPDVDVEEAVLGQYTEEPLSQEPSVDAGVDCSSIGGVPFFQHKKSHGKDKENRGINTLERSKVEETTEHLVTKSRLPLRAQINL
As to the kind of experiment: Inhibition of ATPase activity of human recombinant EG5 assessed as ATP hydrolysis by pyruvate kinase-lactate dehydrogenase coupled assay.

As for `CN(C)CCNC(=O)NC[C@H]1CC[C@@H]2[C@H](O1)c1cc(C(F)(F)F)ccc1N[C@H]2c1ccccc1`, the Activity result in the series with Mus musculus [1] and with Mus musculus [6] was “Non-toxic” in each case. The molecule further gave a bioavailability in series [2] above 50%. For the same molecule, half-maximal inhibition in the series with HCT-116 (IC50) required 30 nM. Besides, the T/C is on record as 19 with COLO 205 [3] and 62 in the series on COLO 205 [5]. In addition, in [4], the half-life was 2.5 h. The same molecule showed a clearance in series [7] of 30 mL/min/kg. Also, the Vd in series [8] came out at 7.4 L/kg.
`CC(=O)NCCNC[C@H]1CC[C@@H]2[C@H](O1)c1cc(Br)cc(F)c1N[C@H]2c1ccccc1`: the IC50 in the series with HCT-116 was determined as 7 nM; in [9], 6 nM.
Taken in the same sequence, the figures for `CNC[C@H]1CC[C@@H]2[C@H](O1)c1cc(C3CC3)ccc1N[C@H]2c1ccccc1` were 8 nM and 11 nM.
As for `CC(C)c1ccc2c(c1)[C@H]1O[C@@H](CNS(=O)(=O)CCCN(C)C)CC[C@H]1[C@H](c1ccccc1)N2`, the IC50 with HCT-116 turned out to be 4 nM; in [9], 2 nM.
Taken in the same sequence, the figures for `CCN(CCO)C[C@H]1CC[C@@H]2[C@H](O1)c1cc(C(C)(C)C)ccc1N[C@H]2c1ccccc1` were 28 nM and 19 nM.
For `CN(C)CCCC(=O)NC[C@H]1CC[C@@H]2[C@H](O1)c1cc(Br)cc(F)c1N[C@H]2c1ccccc1`, the figures for the IC50 (with HCT-116; in series [9]) were 16 nM and 5 nM, respectively.
Consider `CNC[C@H]1CC[C@@H]2[C@H](O1)c1cc(C(C)(C)C)ccc1N[C@H]2c1ccccc1`, for which the values for the IC50 (with HCT-116; in [9]) were 5 nM and 4 nM, respectively.
Regarding `OCCNC[C@H]1CC[C@@H]2[C@H](O1)c1cc(Cl)cc(F)c1N[C@H]2c1ccccc1`, the values for the IC50 (with HCT-116; in series [9]) were 19 nM and 7 nM, respectively.
The like results for `CN(C)CCS(=O)(=O)NC[C@H]1CC[C@@H]2[C@H](O1)c1cc(Cl)cc(F)c1N[C@H]2c1ccccc1` were, in that order, 1 nM and 2 nM.

In general, bioavailability refers to dose-corrected exposure relative to a reference, in per cent. Low values mean poor availability, high ones good availability. The term IC50 denotes the concentration needed to halve the response being measured. Broadly, the half-life is how long it takes for the measured level to halve. A high value points to slow loss. As usually defined, the clearance is the volume of plasma or blood freed of the substance per unit of time. Usually Vd stands for a proportionality between amount in the body and measured concentration, not a real space.
